Assay results from the supplement of paper PMC10307832.

Tests used:
Assay in all cases: relative viability (nuclei count vs DMSO), 5 days (fraction); higher = more cells survive
Cediranib + Pemetrexed = compound: COc1cc2c(Oc3ccc4[nH]c(C)cc4c3F)ncnc2cc1OCCCN1CCCC1 [Cediranib] + Nc1nc2[nH]cc(CCc3ccc(C(=O)N[C@@H](CCC(=O)O)C(=O)O)cc3)c2c(=O)[nH]1 [Pemetrexed] (partner 0.2 µM)
In short: (§1)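 Lung cancer cell lines in 1536-well plates were dosed by pin tool the day after seeding, either with one drug alone or with a fixed anchor-drug dose plus five library-drug doses (not always all listed) in √10 steps. After 5 days, cells were fixed and their nuclei stained in one step (final 0.05% Triton X-100, 1% formaldehyde, 1 ug/ml Hoechst), then counted on 4× images. Relative viability is the nuclei count in treated wells divided by that in vehicle wells. Values are medians of duplicate plates.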

[1] = compound: O=C(C[C@H]1NCCC[C@@H]1O)Cn1cnc2cc(Br)c(Cl)cc2c1=O (racemic) [Halofuginone] + CC1(C)CCC(c2ccc(Cl)cc2)=C(CN2CCN(c3ccc(C(=O)NS(=O)(=O)c4ccc(N[C@H](CCN5CCOCC5)CSc5ccccc5)c(S(=O)(=O)C(F)(F)F)c4)cc3)CC2)C1 [Navitoclax] (partner 0.5 µM)
In short: as §1

Decitabine + Bortezomib = compound: Nc1ncn([C@H]2C[C@H](O)[C@@H](CO)O2)c(=O)n1 [Decitabine] + CC(C)C[C@H](NC(=O)[C@H](Cc1ccccc1)NC(=O)c1cnccn1)B(O)O [Bortezomib] (partner 0.002 µM)
In short: as §1

Cediranib + Luminespib = compound: COc1cc2c(Oc3ccc4[nH]c(C)cc4c3F)ncnc2cc1OCCCN1CCCC1 [Cediranib] + CCNC(=O)c1noc(-c2cc(C(C)C)c(O)cc2O)c1-c1ccc(CN2CCOCC2)cc1 [Luminespib] (partner 0.01 µM)
In short: as §1

Cell Line	relative viability (Cediranib + Pemetrexed; first compound 0.04 µM)	relative viability (Cediranib + Pemetrexed; first compound 0.4 µM)	relative viability (Cediranib + Pemetrexed; first compound 1.265 µM)	relative viability (Cediranib + Pemetrexed; first compound 4 µM)	relative viability ([1]; first compound 0.001 µM)	relative viability ([1]; first compound 0.003162 µM)	relative viability ([1]; first compound 0.01 µM)	relative viability ([1]; first compound 0.03162 µM)	relative viability ([1]; first compound 0.1 µM)	relative viability (Decitabine + Bortezomib; first compound 0.04 µM)	relative viability (Decitabine + Bortezomib; first compound 0.1265 µM)	relative viability (Decitabine + Bortezomib; first compound 0.4 µM)	relative viability (Decitabine + Bortezomib; first compound 1.265 µM)	relative viability (Decitabine + Bortezomib; first compound 4 µM)	relative viability (Cediranib + Luminespib; first compound 0.04 µM)	relative viability (Cediranib + Luminespib; first compound 0.1265 µM)	relative viability (Cediranib + Luminespib; first compound 0.4 µM)	relative viability (Cediranib + Luminespib; first compound 1.265 µM)	relative viability (Cediranib + Luminespib; first compound 4 µM)	relative viability (Cediranib + Pemetrexed; first compound 0.1265 µM)
LCLC-97TM1	0.205	0.154	0.218	0.177	0.501	0.476	0.363	0.327	0.212	0.202	0.268	0.123	0.124	0.11	0.918	0.776	0.787	0.771	0.842	–
LOU-NH91	0.447	0.357	0.337	0.36	0.746	0.705	0.719	0.719	0.536	0.412	0.471	0.436	0.512	0.523	0.354	0.272	0.286	0.314	0.338	0.347
LU99A	0.173	0.172	0.2	0.17	0.794	0.73	0.763	0.706	0.665	1.06	1.26	1.31	0.989	0.949	0.301	0.255	0.252	0.269	0.256	–
LXF-289	1.1	0.8	0.936	0.863	0.94	0.965	0.859	0.973	0.865	0.775	0.714	0.503	0.347	0.324	0.719	0.52	0.587	0.7	0.55	–
NCI-H23	0.602	0.525	0.692	0.699	0.893	0.966	0.795	0.798	0.377	0.571	0.493	0.307	0.216	0.233	0.192	0.218	0.213	0.253	0.238	0.693
NCI-H322M	0.64	0.592	0.648	0.572	1.2	1.26	1.26	1.24	1.19	1.18	1.06	0.716	0.699	0.479	0.982	1.15	0.826	0.831	0.771	0.684
NCI-H441	0.265	0.258	0.271	0.257	0.607	0.674	0.562	0.586	0.34	0.228	0.26	0.231	0.198	0.198	0.471	–	0.273	0.341	0.279	0.291
NCI-H460	0.0716	0.0685	0.0585	0.0931	1.2	1.3	1.12	0.232	0.0111	0.909	0.991	0.811	0.35	0.272	0.0397	0.0286	0.0301	0.0321	0.0373	0.0662
NCI-H520	0.668	0.623	0.602	0.563	1.18	1.05	1.03	0.835	0.346	0.628	0.595	0.374	0.297	0.221	0.251	0.262	0.188	0.2	0.308	0.789
NCI-H596	0.472	0.427	0.476	0.525	0.911	0.912	0.997	1	0.606	1.02	0.873	0.845	0.847	0.855	0.709	1.06	0.98	–	0.955	0.499
NCI-H647	0.185	0.2	0.178	0.172	1.15	1.09	1.13	0.829	0.415	0.728	0.821	0.344	0.241	0.209	0.13	0.308	0.174	0.157	0.212	0.254
NCI-H838	0.252	0.229	0.257	0.231	1.17	1.24	0.994	0.954	0.208	0.528	0.381	0.293	0.296	0.243	0.328	0.289	0.276	0.314	0.272	0.241
NCI-H1355	1.13	0.95	1.02	1.08	0.929	0.949	0.902	1.08	0.715	0.826	0.583	0.517	0.305	0.297	0.739	0.871	0.686	0.813	0.719	1.06
NCI-H1437	0.33	0.289	0.334	0.337	1.09	1.13	1.06	0.976	0.436	0.38	0.324	0.313	0.221	0.203	1.15	1.05	1.04	1.1	1.13	0.299
NCI-H1650	0.394	0.38	0.349	0.384	1.37	1.23	1.18	0.815	0.166	0.18	0.166	0.185	0.201	0.187	0.192	0.161	0.179	0.197	0.173	0.364
NCI-H1651	0.601	0.592	0.497	0.53	1.04	1.15	1.12	0.761	0.267	0.96	0.936	0.824	0.682	0.76	0.763	0.751	0.786	0.861	0.892	0.619

Cell Line	relative viability (Cediranib + Pemetrexed; first compound 0.04 µM)	relative viability (Cediranib + Pemetrexed; first compound 0.4 µM)	relative viability (Cediranib + Pemetrexed; first compound 1.265 µM)	relative viability (Cediranib + Pemetrexed; first compound 4 µM)	relative viability ([1]; first compound 0.001 µM)	relative viability ([1]; first compound 0.003162 µM)	relative viability ([1]; first compound 0.01 µM)	relative viability ([1]; first compound 0.03162 µM)	relative viability ([1]; first compound 0.1 µM)	relative viability (Decitabine + Bortezomib; first compound 0.04 µM)	relative viability (Decitabine + Bortezomib; first compound 0.1265 µM)	relative viability (Decitabine + Bortezomib; first compound 0.4 µM)	relative viability (Decitabine + Bortezomib; first compound 1.265 µM)	relative viability (Decitabine + Bortezomib; first compound 4 µM)	relative viability (Cediranib + Luminespib; first compound 0.04 µM)	relative viability (Cediranib + Luminespib; first compound 0.1265 µM)	relative viability (Cediranib + Luminespib; first compound 0.4 µM)	relative viability (Cediranib + Luminespib; first compound 1.265 µM)	relative viability (Cediranib + Luminespib; first compound 4 µM)	relative viability (Cediranib + Pemetrexed; first compound 0.1265 µM)
NCI-H1666	0.889	0.898	0.912	0.841	1.1	0.885	0.962	1.01	0.419	0.723	0.726	0.545	0.625	0.569	1.05	1.04	1.05	0.981	1.07	0.962
NCI-H1734	0.472	0.412	0.425	0.425	0.825	0.961	0.799	0.762	0.378	0.646	0.867	0.571	0.424	0.331	0.238	0.185	0.208	0.208	0.176	0.409
NCI-H1755	0.432	0.422	0.437	0.449	0.958	1.01	0.995	1.01	0.596	0.814	0.877	0.808	0.492	0.381	0.556	0.419	0.403	0.232	0.467	0.391
NCI-H1792	–	0.567	0.742	0.796	0.557	0.671	0.783	0.664	0.654	0.927	0.99	0.923	0.444	0.521	0.429	0.644	0.479	0.538	0.508	1.13
NCI-H1915	0.655	0.448	0.516	0.446	0.776	0.785	0.8	0.756	0.771	0.379	0.279	0.197	0.183	0.184	0.972	0.759	0.787	0.813	0.875	0.74
NCI-H1975	0.269	0.277	0.301	0.284	1.2	1.08	1.1	0.554	0.205	0.227	0.268	0.178	0.168	0.169	0.166	0.14	0.207	0.194	0.196	0.314
NCI-H1993	–	0.627	0.49	0.585	1.04	0.875	1.04	0.874	0.668	0.925	0.898	0.839	0.777	0.672	0.637	0.901	0.906	0.851	0.597	0.581
NCI-H2009	1.08	0.957	1.04	0.999	1.22	1.13	1.09	1.02	0.67	0.765	0.571	0.301	0.305	0.243	1.09	0.97	0.995	1.12	1.05	0.914
NCI-H2023	0.283	0.254	0.233	0.248	1.02	0.986	0.926	0.577	0.15	0.628	0.61	0.206	0.206	0.155	0.844	0.639	0.732	0.405	0.53	0.274
NCI-H2085	0.892	0.864	0.812	0.9	1.1	1.25	1.03	1.02	0.74	0.751	0.801	0.58	0.451	0.366	0.506	0.406	0.42	0.421	0.478	1.06
NCI-H2087	0.734	0.633	0.587	0.63	1.01	1.09	0.94	0.799	0.682	0.603	0.55	0.51	0.33	0.36	0.194	0.191	0.191	0.136	0.144	0.678
NCI-H2126	0.701	0.627	0.725	0.748	0.87	0.822	0.824	0.824	0.831	0.984	0.975	0.648	0.655	0.591	0.904	1.03	0.873	0.752	0.816	0.595
NCI-H2228	0.351	0.359	0.325	0.325	0.976	0.857	0.879	0.228	0.126	0.788	0.755	0.389	0.314	0.229	0.118	0.176	0.129	0.144	0.14	0.346
NCI-H2347	0.397	0.425	0.454	0.44	0.814	0.838	0.859	0.845	0.589	–	0.768	0.844	0.525	0.572	0.321	0.404	0.637	0.506	0.747	0.353
NCI-H2405	1.02	0.997	1.1	1.16	0.986	0.855	0.878	0.784	0.542	0.88	0.905	0.828	0.66	0.538	0.897	0.712	0.649	0.657	0.532	1.01
NCI-H3122	0.227	0.191	0.203	0.216	0.994	1.02	0.966	1.01	1.05	0.973	0.987	0.968	0.782	0.725	0.0861	0.09	0.0816	0.0839	0.12	0.238
